Measured values from patent US6737383B1, “Herbicidal oxadiazolidines” (priority 1999, dated 2004).

Columns and labels:
bamyardgrass = experiment: Test B flood test barnyardgrass; format: in vivo, Echinochloa crus-galli
Method in brief: (§1)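 Plants were grown to the 2-leaf stage before treatment with test chemical, then held in a greenhouse for twelve to sixteen days. Injury was visually rated against untreated controls on a 0–10 scale, where 0 is no effect and 10 is complete control.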

sugar beet = experiment: Test B pre/postemergence sugar beet; format: in vivo, Beta vulgaris; conditions: for Plant response rating, Sugarbeets: Rate 250 g/ha
Method in brief: (§2)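 Herbicidal effect was estimated by eye on a ten-point control scale after plants spent twelve to sixteen days in a greenhouse following soil or foliar treatment. Foliar sprays targeted plants at one to four leaves; all doses were formulated in a non-phytotoxic solvent with surfactant.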

pigweed = experiment: Test B pre/postemergence pigweed; format: in vivo, Amaranthus retroflexus
Method in brief: as §2

surinam grass = experiment: Test B pre/postemergence surinam grass; format: in vivo, Brachiaria decumbens
Method in brief: as §2

bedstraw = experiment: Test B pre/postemergence bedstraw; format: in vivo, Galium aparine
Method in brief: as §2

purple nutsedge = experiment: Test B pre/postemergence purple nutsedge; format: in vivo, Cyperus rotundus
Method in brief: as §2

giant foxtail = experiment: Test B pre/postemergence giant foxtail; format: in vivo, Setaria faberii
Method in brief: as §2

morningglory = experiment: Test B pre/postemergence morningglory; format: in vivo, Ipomoea hederacea
Method in brief: as §2

corn = experiment: Test B pre/postemergence corn; format: in vivo, Zea mays
Method in brief: as §2

blackgrass = experiment: Test B pre/postemergence blackgrass; format: in vivo, Alopecurus myosuroides
Method in brief: as §2

soybean = experiment: Test B pre/postemergence soybean; format: in vivo, Glycine max
Method in brief: as §2

velvetleaf = experiment: Test B pre/postemergence velvetleaf; format: in vivo, Abutilon theophrasti; conditions: for Plant response rating, Velvetleaf: Rate 250 g/ha
Method in brief: as §2

rice = experiment: Test B flood test rice; format: in vivo, Oryza sativa
Method in brief: as §1

rape = experiment: Test B pre/postemergence rape; format: in vivo, Brassica napus
Method in brief: as §2

smallflower flatsedge = experiment: Test B flood test smallflower flatsedge; format: in vivo, Cyperus difformis
Method in brief: as §1

duck salad = experiment: Test B flood test duck salad; format: in vivo, Heteranthera limosa
Method in brief: as §1

[1] = Postemergence, Rate 62 g/ha, scale 0 to 10, 0 is no effect, 10 is complete control
[2] = Rate 250 g/ha, headed Pre-emergence (flood test species), scale 0 to 10 (0 no effect, 10 complete control)
[3] = Rate 500 g/ha, headed Pre-emergence (flood test species), scale 0 to 10 (0 no effect, 10 complete control)
[4] = Rate 500 g/ha, listed under Postemergence (flood test species), scale 0 to 10, 0 no effect, 10 complete control
[5] = Rate 1000 g/ha, Pre-emergence (as headed), scale 0 to 10
[6] = flood test, listed under Postemergence, Rate 250 g/ha, scale 0 to 10, 0 no effect, 10 complete control
[7] = Postemergence, Rate 125 g/ha, scale of 0 to 10 where 0 is no effect and 10 is complete control
[8] = Preemergence, Rate 62 g/ha, scale 0 to 10 (0 no effect, 10 complete control)
[9] = Preemergence, Rate 125 g/ha, 0 is no effect, 10 is complete control
[10] = Preemergence, scale of 0 to 10 where 0 is no effect and 10 is complete control
[11] = Preemergence, Rate 500 g/ha, scale 0 (no effect) to 10 (complete control)
[12] = Postemergence, scale 0 to 10, 0 is no effect, 10 is complete control
[13] = Rate 500 g/ha, Postemergence, scale 0 to 10, 0 no effect, 10 complete control
[14] = Preemergence, Rate 125 g/ha, scale 0 to 10 (0 no effect, 10 complete control)
[15] = Preemergence, Rate 250 g/ha, scale of 0 to 10 where 0 is no effect and 10 is complete control
[16] = Rate 250 g/ha, Postemergence, scale 0 to 10, 0 is no effect, 10 is complete control
[17] = Postemergence, Rate 250 g/ha, scale 0 to 10, 0 no effect, 10 complete control
[18] = Postemergence (flood test species), Rate 125 g/ha, scale of 0 to 10 where 0 is no effect and 10 is complete control
[19] = Rate 250 g/ha, Postemergence (flood test), scale 0 to 10, 0 is no effect, 10 is complete control
[20] = Rate 2000 g/ha, Pre-emergence (as headed), scale 0 to 10

SMILES: C=CCn1c(=O)on(C(=O)N(c2ccccc2)C(C)C)c1=O [Compound 93]
- Barnyardgrass plant response rating (bamyardgrass; [1]): 0
- Barnyardgrass plant response rating (bamyardgrass; Rate 125 g/ha, Postemergence section (flood test species), scale 0 to 10, 0 no effect, 10 complete control): 0
- Barnyardgrass plant response rating (bamyardgrass; [2]): 0
- Plant response rating, Barnyardgrass (bamyardgrass; [3]): 0
- Barnyardgrass plant response rating (bamyardgrass; [4]): 0
- Barnyardgrass plant response rating (bamyardgrass; [5]): 0
- Barnyardgrass plant response rating (bamyardgrass; Rate 2000 g/ha, Pre-emergence (as headed), scale 0 to 10, 0 no effect, 10 complete control): 0
- Barnyardgrass plant response rating (bamyardgrass; [6]): 0
- Sugarbeets plant response rating (sugar beet; [1]): 2
- Sugarbeets plant response rating (sugar beet; [7]): 3
- Sugarbeets plant response rating (sugar beet; [8]): 6
- Sugarbeets plant response rating (0 to 10 scale) (sugar beet; [9]): 7
- Plant response rating, Sugarbeets (sugar beet; [10]): 8
- Sugarbeets plant response rating (sugar beet; [11]): 9
- Plant response rating, Sugarbeets (sugar beet; [12]): 3
- Sugarbeets plant response rating (sugar beet; [13]): 5
- Redroot pigweed plant response rating (pigweed; [1]): 2
- Redroot pigweed plant response rating (pigweed; [7]): 4
- Redroot pigweed plant response rating (pigweed; [8]): 9
- Plant response rating, Redroot pigweed (pigweed; [14]): 8
- Plant response rating, Redroot pigweed (pigweed; [15]): 10
- Redroot pigweed plant response rating (pigweed; [11]): 10
- Plant response rating, Redroot pigweed (pigweed; [16]): 7
- Redroot pigweed plant response rating (pigweed; [13]): 7
- B. signalgrass plant response rating (surinam grass; [1]): 3
- B. signalgrass plant response rating (surinam grass; [17]): 8
- Plant response rating, B. signalgrass (surinam grass; [14]): 7
- B. signalgrass plant response rating (surinam grass; [11]): 8
- B. signalgrass plant response rating (surinam grass; Rate 125 g/ha, Postemergence, scale 0 to 10, 0 no effect, 10 complete control): 5
- B. signalgrass plant response rating (surinam grass; Rate 500 g/ha, Postemergence, scale of 0 to 10 where 0 is no effect and 10 is complete control): 9
- Bedstraw plant response rating (bedstraw; [8]): 0
- Plant response rating, Bedstraw (bedstraw; [14]): 0
- Plant response rating, Bedstraw (bedstraw; [15]): 0
- Bedstraw plant response rating (bedstraw; [11]): 3
- Bedstraw plant response rating (bedstraw; [13]): 7
- Nutsedge plant response rating (purple nutsedge; [1]): 0
- Nutsedge plant response rating (purple nutsedge; [7]): 0
- Nutsedge plant response rating (purple nutsedge; [17]): 0
- Nutsedge plant response rating (purple nutsedge; [8]): 0
- Plant response rating, Nutsedge (purple nutsedge; [14]): 0
- Plant response rating, Nutsedge (purple nutsedge; [15]): 0
- Nutsedge plant response rating (purple nutsedge; [13]): 3
- Giant foxtail plant response rating (giant foxtail; [1]): 6
- Giant foxtail plant response rating (giant foxtail; [7]): 7
- Giant foxtail plant response rating (giant foxtail; [17]): 9
- Giant foxtail plant response rating (giant foxtail; [8]): 10
- Plant response rating, Giant foxtail (giant foxtail; [14]): 10
- Plant response rating, Giant foxtail (giant foxtail; [15]): 10
- Giant foxtail plant response rating (giant foxtail; [11]): 10
- Giant foxtail plant response rating (giant foxtail; [13]): 9
- Morningglory plant response rating (morningglory; [1]): 6
- Morningglory plant response rating (morningglory; [7]): 10
- Morningglory plant response rating (morningglory; [17]): 10
- Morningglory plant response rating (morningglory; [8]): 0
- Plant response rating, Morningglory (morningglory; [14]): 0
- Plant response rating, Morningglory (morningglory; [15]): 3
- Morningglory plant response rating (morningglory; [11]): 6
- Morningglory plant response rating (morningglory; [13]): 10
- Corn plant response rating (corn; [1]): 3
- Corn plant response rating (corn; [7]): 4
- Corn plant response rating (corn; [17]): 5
- Corn plant response rating (corn; [8]): 3
- Plant response rating, Corn (corn; [14]): 7
- Plant response rating, Corn (corn; [15]): 8
- Corn plant response rating (corn; [11]): 9
- Corn plant response rating (corn; [13]): 5
- Blackgrass plant response rating (blackgrass; [1]): 7
- Blackgrass plant response rating (blackgrass; [7]): 8
- Blackgrass plant response rating (blackgrass; [17]): 8
- Blackgrass plant response rating (blackgrass; [8]): 9
- Plant response rating, Blackgrass (blackgrass; [14]): 10
- Plant response rating, Blackgrass (blackgrass; [15]): 10
- Blackgrass plant response rating (blackgrass; [11]): 10
- Blackgrass plant response rating (blackgrass; [13]): 8
- Soybean plant response rating (soybean; [1]): 4
- Soybean plant response rating (soybean; [7]): 5
- Soybean plant response rating (soybean; [8]): 0
- Plant response rating, Soybean (soybean; [14]): 2
- Plant response rating, Soybean (soybean; [15]): 7
- Soybean plant response rating (soybean; [11]): 9
- Plant response rating, Soybean (soybean; [16]): 5
- Soybean plant response rating (soybean; [13]): 7
- Velvetleaf plant response rating (velvetleaf; [1]): 0
- Velvetleaf plant response rating (velvetleaf; [7]): 0
- Velvetleaf plant response rating (velvetleaf; [8]): 5
- Velvetleaf plant response rating (0 to 10 scale) (velvetleaf; [9]): 6
- Plant response rating, Velvetleaf (velvetleaf; [10]): 6
- Velvetleaf plant response rating (velvetleaf; [11]): 10
- Plant response rating, Velvetleaf (velvetleaf; [12]): 0
- Velvetleaf plant response rating (velvetleaf; [13]): 6
- Rice plant response rating (rice; [18]): 0
- Rice plant response rating (rice; [1]): 0
- Plant response rating, Rice (rice; [19]): 0
- Rice plant response rating (rice; [2]): 0
- Plant response rating, Rice (rice; [3]): 0
- Rice plant response rating (rice; [4]): 4
- Rice plant response rating (rice; [5]): 0
- Rice plant response rating (rice; [20]): 0
- Rape plant response rating (rape; [1]): 2
- Rape plant response rating (rape; [7]): 3
- Rape plant response rating (rape; [17]): 4
- Rape plant response rating (rape; [8]): 3
- Plant response rating, Rape (rape; [14]): 7
- Plant response rating, Rape (rape; [15]): 8
- Rape plant response rating (rape; [11]): 10
- Rape plant response rating (rape; [13]): 5
- S. Flatsedge plant response rating (smallflower flatsedge; [18]): 0
- S. Flatsedge plant response rating (smallflower flatsedge; [1]): 0
- S. Flatsedge plant response rating (smallflower flatsedge; Pre-emergence, Rate 1000 g/ha, scale 0 to 10 (0 no effect, 10 complete control)): 0
- Plant response rating, S. Flatsedge (smallflower flatsedge; [19]): 0
- S. Flatsedge plant response rating (smallflower flatsedge; [2]): 0
- Plant response rating, S. Flatsedge (smallflower flatsedge; [3]): 0
- S. Flatsedge plant response rating (smallflower flatsedge; [4]): 6
- S. Flatsedge plant response rating (smallflower flatsedge; [20]): 0
- Ducksalad plant response rating (duck salad; [18]): 0
- Ducksalad plant response rating (duck salad; [1]): 0
- Ducksalad plant response rating (duck salad; [2]): 0
- Plant response rating, Ducksalad (duck salad; [3]): 0
- Ducksalad plant response rating (duck salad; [4]): 0
- Ducksalad plant response rating (duck salad; [5]): 0
- Ducksalad plant response rating (duck salad; [20]): 0
- Ducksalad plant response rating (duck salad; [6]): 0
